The molecules below were run against T1, menin-MLL interaction (Homo sapiens, UniProt O00255) (assay: biochemical).
T1 sequence (O00255 1-610): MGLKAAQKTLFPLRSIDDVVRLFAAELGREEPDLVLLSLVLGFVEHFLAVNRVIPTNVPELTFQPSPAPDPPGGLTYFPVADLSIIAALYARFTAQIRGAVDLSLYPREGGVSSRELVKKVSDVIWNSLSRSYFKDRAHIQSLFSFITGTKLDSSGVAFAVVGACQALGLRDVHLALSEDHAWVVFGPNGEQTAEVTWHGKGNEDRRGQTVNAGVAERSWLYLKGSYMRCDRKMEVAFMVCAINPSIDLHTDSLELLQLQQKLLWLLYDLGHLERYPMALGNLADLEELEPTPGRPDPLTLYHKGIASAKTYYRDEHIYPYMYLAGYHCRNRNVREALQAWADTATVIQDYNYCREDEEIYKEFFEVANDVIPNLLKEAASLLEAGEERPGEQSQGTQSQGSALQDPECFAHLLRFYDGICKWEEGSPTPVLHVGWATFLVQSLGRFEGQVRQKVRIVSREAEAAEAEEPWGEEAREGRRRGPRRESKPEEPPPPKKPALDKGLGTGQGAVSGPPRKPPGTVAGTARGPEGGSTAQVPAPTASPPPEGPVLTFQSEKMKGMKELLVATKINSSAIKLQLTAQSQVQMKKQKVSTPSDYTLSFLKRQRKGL
Description: Fluorescence Polarization Assay.
Compounds that inhibit the interaction decrease the fluorescence anisotropy which is being used as a read-out for compound screening and for IC50 determination. For validation of the FP assay, a control competition experiment with unlabeled MLL peptide (no fluorescein attached) was performed.
In the case of `CS(=O)(=O)c1ccc(OC[C@@H](O)CN2CCC(C(O)(c3ccccc3)c3ccccc3)CC2)cc1` [Compound B45], the IC50 is reported as 21 µM. With `N#CCc1ccc(OCCCN2CCC(C(O)(c3ccccc3)c3ccccc3)CC2)cc1` [Compound B40] the IC50 was 17.4 µM. `CC(COc1ccc(C#N)c(F)c1)CN1CCC(C(O)(c2ccccc2)c2ccccc2)CC1` (stereo not drawn) [Compound B49] showed an IC50 of 70.8 µM. In the case of `CCOC(c1ccccc1)(c1ccccc1)C1CCN(CCCOc2ccc(C#N)cc2)CC1` [Compound B54], the IC50 is reported as 5.3 µM. `N#Cc1ccc(OCCCN2CCC(C(O)(C3CCCC3)C3CCCC3)CC2)cc1` [Compound B31] was tested, and the IC50 was 1.4 µM. Work on `N#Cc1ccc(OC[C@@H](O)CN2CCC(C(O)(c3ccccc3)c3ccccc3)CC2)cc1F` [Compound B51] yielded an IC50 of 15 µM. In the case of `N#Cc1ccc(OCCCN2CCC(C(O)(c3ccccc3)c3ccccc3)CC2)cc1F` [Compound B6], the IC50 is reported as 26.5 µM. In the case of `N#Cc1ccc(OCCCN2CCC(C(O)(C3=CCCC3)c3ccccc3)CC2)cc1` (stereo not drawn) [Compound B32], the IC50 is reported as 2.08 µM. With `N#Cc1ccc(OCCCN2CCC(C(O)(Cc3ccccc3)C3=CCCC3)CC2)cc1` (stereo not drawn) [Compound B59] the IC50 was 11.3 µM. `N#Cc1ccc(OCCCN2CCC(C(O)(c3ccccc3)C3CCCC3)CC2)cn1` (stereo not drawn) [Compound B61] gave an IC50 of 8.94 µM. In the case of `NCc1ccc(OCCCN2CCC([C@@](O)(c3ccccc3)C3CCCC3)CC2)cc1` [Compound B28], the IC50 is reported as 13.1 µM. Molecule `N#Cc1ccc(OCCCN2CCC(C(O)(c3ccccc3)c3ccc(F)cc3)CC2)cc1` (stereo not drawn) [Compound B13] has an IC50 of 77.5 µM. For `N#Cc1ccc(OCCCN2CCC(C(O)(c3cccc(F)c3)c3nccs3)CC2)cc1` (stereo not drawn) [Compound B83], the IC50 was 0.407 µM. For `O[C@H](COc1ccc(Cl)cc1)CN1CCC(C(O)(c2ccccc2)c2ccccc2)CC1` [Compound B47], the IC50 was 40 µM. `O[C@H](COc1ccc(OC(F)(F)F)cc1)CN1CCC(C(O)(c2ccccc2)c2ccccc2)CC1` [Compound B48] gave an IC50 of 31 µM. `CC(=O)NCc1ccc(OCCCN2CCC(C(O)(c3ccccc3)c3ccccc3)CC2)cc1` [Compound B38] showed an IC50 of 20.7 µM. `OC(c1ccccc1)(c1ccccc1)C1CCN(CCCOc2ccncc2)CC1` [Compound B37] was tested, and the IC50 was 25 µM. For `OC(c1ccccc1)(c1ccccc1)C1CCN(CCCOc2ccc(OC(F)(F)F)cc2)CC1` [Compound B4], the IC50 was 98 µM. For `OC(c1ccccc1)(c1ccccc1)C1CCN(CCCOc2ccc(-c3ccncc3)cc2)CC1` [Compound B35, Diphenyl(1-(3-(4-(pyridin-4-yl)phenoxy)propyl)piperidin-4-yl)methanol], the IC50 was 30.6 µM. `NS(=O)(=O)c1ccc(OCCCN2CCC(C(O)(c3ccccc3)c3ccccc3)CC2)cc1` [Compound B24] showed an IC50 of 14.3 µM. `N#Cc1ccc(OC[C@@H](O)CN2CCC(C(O)(c3ccccc3)c3ccccc3)CC2)c(F)c1` [Compound B50] was tested, and the IC50 was 40 µM. `CN(C)S(=O)(=O)c1ccc(OCCCN2CCC(C(O)(c3ccccc3)c3ccccc3)CC2)cc1` [Compound B30] was tested, and the IC50 was 40 µM. `COc1ccc(C(O)(C2CCCC2)C2CCN(CCCOc3ccc(C#N)cc3)CC2)cn1` (stereo not drawn) [Compound B57] gave an IC50 of 75 µM. `COC(=O)c1ccc(OCCCN2CCC(C(O)(c3ccccc3)c3ccccc3)CC2)cc1` [Compound B16] was tested, and the IC50 was 86 µM. Work on `CS(=O)(=O)NCc1ccc(OCCCN2CCC(C(O)(c3ccccc3)c3ccccc3)CC2)cc1` [Compound B25] yielded an IC50 of 40 µM. With `OC(c1ccccc1)(c1ccccc1)C1CCN(CCCOc2ccc(Cl)cc2)CC1` [Compound B5] the IC50 was 96 µM. Molecule `N#Cc1ccc(OCCCN2CCC(C(O)(c3ccccc3)C(F)(F)F)CC2)cc1` (stereo not drawn) [Compound B23] has an IC50 of 31 µM. With `CC(CCN1CCC(C(O)(c2ccccc2)c2ccccc2)CC1)Oc1ccc([N+](=O)[O-])cc1Cl` (stereo not drawn) [Compound B52] the IC50 was 55 µM. `N#Cc1ccc(OCC(O)CN2CCC(C(O)(c3cccc(F)c3)c3ccccn3)CC2)cc1` (stereo not drawn) [Compound B86, 4-(3-(4-((3-Fluorophenyl)(hydroxy)(pyridin-2-yl)methyl)piperidin-1-yl)-2-hydroxypropoxy)benzonitrile] was tested, and the IC50 was 0.222 µM. `NS(=O)(=O)c1ccc(OCCCN2CCC(C(O)(c3cccc(F)c3)c3nccs3)CC2)cc1` (stereo not drawn) [Compound B82] showed an IC50 of 0.354 µM. `N#Cc1ccc(OCCCN2CCC(C(O)(c3ccccn3)C3CCCC3)CC2)cn1` (stereo not drawn) [Compound B64] was tested, and the IC50 was 4.05 µM. Molecule `N#Cc1ccc(NCCCN2CCC(C(O)(c3ccccc3)c3ccccc3)CC2)cc1` [Compound B42] has an IC50 of 9.56 µM. Work on `OC(c1ccccc1)(c1ccccc1)C1CCN(CCCOc2ccc(-n3ccnn3)cc2)CC1` [Compound B10, (1-(3-(4-(1H-1,2,3-triazol-1-yl)phenoxy)propyl)piperidin-4-yl)diphenylmethanol] yielded an IC50 of 29 µM. Molecule `NCc1ccc(OCCCN2CCC(C(O)(C3=CCCC3)c3ccccc3)CC2)cc1` (stereo not drawn) [Compound B34] has an IC50 of 13.9 µM. With `COC(c1ccccc1)(C1CCCC1)C1CCN(CCCOc2ccc(C#N)cc2)CC1` (stereo not drawn) [Compound B62] the IC50 was 0.743 µM. `CS(=O)(=O)c1ccc(OCCCN2CCC(C(O)(c3ccccc3)c3ccccc3)CC2)cc1` [Compound B33] gave an IC50 of 58.5 µM. Molecule `Oc1ccccc1-c1ccc(OCCCN2CCC(C(O)(c3ccccc3)c3ccccc3)CC2)cc1` [Compound B29] has an IC50 of 8.3 µM. `[N-]=[N+]=Nc1ccc(OCCCN2CCC(C(O)(c3ccccc3)c3ccccc3)CC2)cc1` [Compound B14] showed an IC50 of 58 µM. With `OC(c1ccccc1)(c1ccccc1)C1CCN(CCCOc2ccc(-c3cccnc3)cc2)CC1` [Compound B36] the IC50 was 22.6 µM. With `OC(c1ccccc1)(c1ccccc1)C1CCN(CCCOc2ccc(C(F)(F)F)cc2)CC1` [Compound B3] the IC50 was 52 µM. `OC(c1ccccc1)(c1ccccc1)C1CCN(CCCOc2ccc(-c3cncnc3)cc2)CC1` [Compound B39] showed an IC50 of 83 µM. `NCc1ccc(OCCCN2CCC([C@](O)(c3ccccc3)C3CCCC3)CC2)cc1` [Compound B27] gave an IC50 of 13.9 µM. `N#Cc1ccc(OC[C@H](O)CN2CCC(C(O)(c3ccccc3)C3CCCC3)CC2)cc1` (stereo partly drawn) [Compound B41] was tested, and the IC50 was 1.15 µM. Work on `CN(C)CCOC(c1ccccc1)(c1ccccc1)C1CCN(CCCOc2ccc(C#N)cc2)CC1` [Compound B56] yielded an IC50 of 4.2 µM. `COc1cccc(C(O)(C2CCCC2)C2CCN(CCCOc3ccc(C#N)cc3)CC2)c1` (stereo not drawn) [Compound B68] showed an IC50 of 1.1 µM. `COC(c1ccccc1)(c1ccccc1)C1CCN(CCCOc2ccc(C#N)cc2)CC1` [Compound B55] was tested, and the IC50 was 5.3 µM. Molecule `O=C(c1ccc(OCCCN2CCC(C(O)(c3ccccc3)C3CCCC3)CC2)cc1)C1CCCC1` (stereo not drawn) [Compound B26] has an IC50 of 3.95 µM. `N#Cc1ccc(OCCCN2CCC(C(O)(c3cc(F)cc(F)c3)c3ccccn3)CC2)cc1` (stereo not drawn) [Compound B81] gave an IC50 of 0.9 µM. With `N#Cc1ccc(OCCCN2CCC(C(O)(C3CCCC3)C3CCCCN3)CC2)cc1` (stereo not drawn) [Compound B63] the IC50 was 28 µM. `Cc1ccc(OC[C@@H](O)CN2CCC(C(O)(c3ccccc3)c3ccccc3)CC2)cc1` [Compound B46] was tested, and the IC50 was 100 µM. For `N#Cc1ccc(OC[C@@H](O)CN2CCC(C(O)(c3ccccc3)C3CCCC3)CC2)cc1` (stereo partly drawn) [Compound B43], the IC50 was 0.948 µM.

Source: US9212180B2 (priority 2013, dated 2015)
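Note: fluorescence polarization competition assay, inhibitors lower the fluorescence anisotropy signal, IC50 taken from this drop.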
